Numbering of substitutions follows the chain as printed.
How the values were obtained:
Assay type in all cases: biochemical
[1] = target: T1, TG2 (transglutaminase-2, transglutaminase type 2) (Homo sapiens, UniProt P21980, R28S)
T1 sequence (P21980 1-687 R28S): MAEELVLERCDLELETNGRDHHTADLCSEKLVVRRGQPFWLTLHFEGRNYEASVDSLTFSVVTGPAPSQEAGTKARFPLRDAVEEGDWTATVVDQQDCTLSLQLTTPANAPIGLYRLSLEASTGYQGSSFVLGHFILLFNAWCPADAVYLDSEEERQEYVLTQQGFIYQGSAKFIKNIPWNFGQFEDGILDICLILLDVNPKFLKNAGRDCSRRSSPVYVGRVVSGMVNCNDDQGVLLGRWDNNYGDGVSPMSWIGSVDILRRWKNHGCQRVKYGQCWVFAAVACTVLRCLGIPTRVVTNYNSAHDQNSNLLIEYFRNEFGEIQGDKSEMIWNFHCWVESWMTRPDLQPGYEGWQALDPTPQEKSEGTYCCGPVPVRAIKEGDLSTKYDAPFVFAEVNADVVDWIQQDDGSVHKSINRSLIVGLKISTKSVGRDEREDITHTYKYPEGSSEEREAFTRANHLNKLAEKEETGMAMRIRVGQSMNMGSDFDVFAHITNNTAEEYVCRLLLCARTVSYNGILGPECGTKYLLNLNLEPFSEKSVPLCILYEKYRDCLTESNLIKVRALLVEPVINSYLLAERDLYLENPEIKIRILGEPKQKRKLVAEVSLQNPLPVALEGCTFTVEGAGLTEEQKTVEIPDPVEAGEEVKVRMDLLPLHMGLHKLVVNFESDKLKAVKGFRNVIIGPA

[2] = target: T2, TG2 (transglutaminase-2, transglutaminase type 2) (Homo sapiens, UniProt P21980, K634S)
T2 sequence (P21980 1-687 K634S): T1 sequence (P21980 1-687 R28S) with S28R, K634S

[3] = target: T3, TG2 (transglutaminase-2, transglutaminase type 2) (Homo sapiens, UniProt P21980, R263S)
T3 sequence (P21980 1-687 R263S): T1 sequence (P21980 1-687 R28S) with S28R, R263S

[4] = target: T4, TG2 (transglutaminase-2, transglutaminase type 2) (Homo sapiens, UniProt P21980, R262S)
T4 sequence (P21980 1-687 R262S): T1 sequence (P21980 1-687 R28S) with S28R, R262S

IC50 [1]: 64 ± 27 µM | IC50 [2]: 199 ± 36 µM | IC50 [3]: 79 ± 15 µM | IC50 [4]: 23 ± 5 µM
SMILES: Nc1nc2c(ncn2[C@@H]2O[C@H](COP(=O)(O)OP(=O)(O)OP(=O)(O)O)[C@@H](O)[C@H]2O)c(=O)[nH]1 [GTP]
